# Reference: patent US7138411B2, “Substituted benzopyran derivatives for the treatment of inflammation” (G.D. Searle & Co., priority 1997, dated 2006)
# Counter-ions that a name gives are not always drawn.
row,Compound,melting point [°C]
1,"CC(C)(C)c1ccc2c(c1)C=C(C(=O)O)C(C(F)(F)F)S2 (stereo not shown) [Example 147, 6-(1,1-Dimethylethyl)-2-(trifluoromethyl)-2H-1-benzothiopyran-3-carboxylic acid]",183.8 to 184.6
2,"CC(C)(C)c1ccc2c(c1)OC(C(F)(F)C(F)(F)F)C(C(=O)O)=C2 (stereo not shown) [Example 111, 7-(1,1-Dimethylethyl)-2-(pentafluoroethyl)-2H-1-benzopyran-3-carboxylic acid]",171 to 173.5
3,"O=C(O)C1=Cc2cc(C(O)C(F)(F)F)ccc2OC1C(F)(F)F (stereo not shown) [Example 173, 6-(2,2,2-Trifluoro-1-hydroxyethyl)-2-(trifluoromethyl)-2H-1-benzopyran-3-carboxylic acid]",114 to 120
4,"O=C(O)C1=Cc2ccc(C(F)(F)F)cc2OC1C(F)(F)F (stereo not shown) [Example 4, 2,7-bis(Trifluoromethyl)-2H-1-benzopyran-3-carboxylic acid]",190.3 to 193.5
5,"O=C(O)C1=Cc2cc(S(=O)(=O)Cc3ccccc3)ccc2OC1C(F)(F)F (stereo not shown) [Example 70, 6-[(Phenylmethyl)sulfonyl]-2-(trifluoromethyl)-2H-1-benzopyran-3-carboxylic acid]",172 to 176
6,"COc1ccc(CN2c3ccc(Cl)cc3C=C(C(=O)O)C2C(F)(F)F)cc1 (stereo not shown) [Example 168, 6-Chloro-1,2-dihydro-2-(trifluoromethyl)-1-[[4-(methoxy)phenyl]methyl]-3-quinolinecarboxylic acid]",196 to 197
7,"O=C(O)C1=Cc2cc(Cl)c(Oc3ccc(C(=O)O)cc3)cc2OC1C(F)(F)F (stereo not shown) (as salt: potassium) [Example 206, 7-(4-Carboxyphenoxy)-6-chloro-2-(trifluoromethyl)-2H-1-benzopyran-3-carboxylic acid]",> 300
8,"CC(C)(C)CC(=O)c1ccc2c(c1)C=C(C(=O)O)C(C(F)(F)F)O2 (stereo not shown) [Example 60, 6-(2,2-Dimethylpropylcarbonyl)-2-trifluoromethyl-2H-1-benzopyran-3-carboxylic acid]",198 to 200
9,"CCN1c2ccc(Cl)cc2C=C(C(=O)O)C1C(F)(F)F (stereo not shown) [Example 171, 6-Chloro-1,2-dihydro-1-ethyl-2-(trifluoromethyl)-3-quinolinecarboxylic acid]",201 to 202
10,"O=C(O)C1=Cc2ccccc2SC1C(F)(F)F (stereo not shown) [Example 151, 2-(Trifluoromethyl)-2H-1-benzothiopyran-3-carboxylic acid]",187 to 190
11,"CC(C)(C)c1ccc2c(c1)C=C(C(=O)O)C(C(F)(F)F)O2 (stereo not shown) [Example 89, 6-(1,1-Dimethylethyl)-2-(trifluoromethyl)-2H-1-benzopyran-3-carboxylic acid]",170.6 to 173.2
12,"Cc1ccc2c(c1)SC(C(F)(F)F)C(C(=O)O)=C2 (stereo not shown) [Example 148, 7-Methyl-2-(trifluoromethyl)-2H-1-benzothiopyran-3-carboxylic acid]",186.6 to 191.9
13,"O=C(O)C1=Cc2cc(S(=O)(=O)NCCc3ccccc3)ccc2OC1C(F)(F)F (stereo not shown) [Example 71, 6-[[(Phenylethyl)amino]sulfonyl]-2-(trifluoromethyl)-2H-1-benzopyran-3-carboxylic acid]",187 to 190
14,"O=C(O)C1=Cc2cc(F)c(F)cc2NC1C(F)(F)F (stereo not shown) [Example 159, 6,7-Difluoro-1,2-dihydro-2-(trifluoromethyl)-3-quinolinecarboxylic acid]",186.6 to 188.9
15,"O=C(O)C1=Cc2cc(Cl)cnc2NC1C(F)(F)F (stereo not shown) [Example 174, 6-Chloro-2-(triflouromethyl)-1,2-dihydro[1,8]napthyridine-3-carboxylic acid]",287.4 to 288.4
16,"Cc1cc2c(cc1C)SC(C(F)(F)F)C(C(=O)O)=C2 (stereo not shown) [Example 149, 6,7-Dimethyl-2-(trifluoromethyl)-2H-1-benzothiopyran-3-carboxylic acid]",235 to 237
17,"O=C(O)C1=Cc2cc(C(F)(F)F)ccc2NC1C(F)(F)F (stereo not shown) [Example 163, 6-(Trifluoromethyl)-1,2-dihydro-2-(trifluoromethyl)-3-quinolinecarboxylic acid]",150 to 156
18,"O=C(O)C1=Cc2cc(Cl)c(Oc3ccc(C(=O)O)cc3Cl)cc2OC1C(F)(F)F (stereo not shown) (as salt: potassium) [Example 207, 7-(4-Carboxy-2-chloro-phenoxy)-6-chloro-2-(trifluoromethyl)-2H-1-benzopyran-3-carboxylic acid]",> 300
19,"Cc1cccc2c1SC(C(F)(F)F)C(C(=O)O)=C2 (stereo not shown) [Example 150, 8-Methyl-2-(trifluoromethyl)-2H-1-benzothiopyran-3-carboxylic acid]",224 to 225
20,"O=C(O)C1=C(c2ccccc2)c2cc(Cl)ccc2OC1C(F)(F)F (stereo not shown) [Example 143, 6-Chloro-2-(trifluoromethyl)-4-phenyl-2H-1-benzopyran-3-carboxylic acid]",225.5 to 226.6
21,"O=C(O)C1=Cc2cc(OC(F)(F)F)ccc2NC1C(F)(F)F (stereo not shown) [Example 162, 1,2-Dihydro-6-(trifluoromethoxy)-2-(trifluoromethyl)-3-quinolinecarboxylic acid]",127.7 to 128.9

# Next, values leading:
row,melting point [°C],Compound
1,243 to 244,"O=C(O)C1=Cc2cc(I)cc(I)c2OC1C(F)(F)F (stereo not shown) [Example 134, 6,8-Diiodo-2-(trifluoromethyl)-2H-1-benzopyran-3-carboxylic acid]"
2,205.7 to 207.1,"O=C(O)C1=Cc2c(Cl)ccc(Cl)c2OC1C(F)(F)F (stereo not shown) [Example 87, 5,8-Dichloro-2-(trifluoromethyl)-2H-1-benzopyran-3-carboxylic acid]"
3,159.4 to 160.9,"CCOc1cccc2c1OC(C(F)(F)F)C(C(=O)O)=C2 (stereo not shown) [Example 93, 8-Ethoxy-2-trifluoromethyl-2H-1-benzopyran-3-carboxylic acid]"
4,197.7 to 210.1,"O=C(O)C1=Cc2cccc(F)c2OC1C(F)(F)F (stereo not shown) [Example 17, 8-Fluoro-2-trifluoromethyl-2H-1-benzopyran-3-carboxylic acid]"
5,199 to 199.1,"O=C(O)C1=Cc2cc(Cl)c(Oc3ccccc3Cl)cc2OC1C(F)(F)F (stereo not shown) [Example 204, 6-Chloro-7-(2-chlorophenoxy)-2-(trifluoromethyl)-2H-1-benzopyran-3-carboxylic acid]"
6,154.4 to 156.4,"O=C(O)C1=Cc2cc(Cl)cc(C#CCCCCl)c2OC1C(F)(F)F (stereo not shown) [Example 118, 6-Chloro-8-(5-chloro-1-pentynyl)-2-(trifluoromethyl)-2H-1-benzopyran-3-carboxylic acid]"
7,168.1 to 171.2,"CCCC#Cc1cc(Cl)cc2c1OC(C(F)(F)F)C(C(=O)O)=C2 (stereo not shown) [Example 119, 6-Chloro-8-(1-pentynyl)-2-(trifluoromethyl)-2H-1-benzopyran-3-carboxylic acid]"
8,197 to 198,"O=C(O)C1=Cc2cc(-c3ccccc3)ccc2OC1C(F)(F)F (stereo not shown) [Example 132, 6-Phenyl-2-(trifluoromethyl)-2H-1-benzopyran-3-carboxylic acid]"
9,210.4 to 211.4,"O=C(O)C1=Cc2cc(Cl)cc(C#Cc3ccc(Cl)cc3)c2OC1C(F)(F)F (stereo not shown) [Example 122, 6-Chloro-8-[(4-chlorophenyl)ethynyl]-2-(trifluoromethyl)-2H-1-benzopyran-3-carboxylic acid]"
10,240.4 to 241.5,"O=C(O)C1=Cc2cc(Cl)c(S(=O)(=O)c3ccc(Cl)cc3)cc2OC1C(F)(F)F (stereo not shown) [Example 194, 6-Chloro-7-[(4-chlorophenyl)sulfonyl]-2-(trifluoromethyl)-2H-1-benzopyran-3-carboxylic acid]"
11,206 to 208,"O=C(O)C1=Cc2cc(Br)cc(F)c2OC1C(F)(F)F (stereo not shown) [Example 130, 6-Bromo-8-fluoro-2-(trifluoromethyl)-2H-1-benzopyran-3-carboxylic acid]"
12,126 to 133,"Nc1ccc2c(c1)C=C(C(=O)O)C(C(F)(F)F)O2 (stereo not shown) [Example 36, 6-Amino-2-trifluoromethyl-2H-1-benzopyran-3-carboxylic acid]"
13,202.1 to 203.1,"Cc1ccc2c(c1)OC(C(F)(F)F)C(C(=O)O)=C2 (stereo not shown) [Example 3, 7-Methyl-2-trifluoromethyl-2H-1-benzopyran-3-carboxylic acid]"
14,286.5 to 287.8,"CS(=O)(=O)c1ccc(-c2cc(Cl)cc3c2OC(C(F)(F)F)C(C(=O)O)=C3)cc1 (stereo not shown) [Example 128, 6-Chloro-8-[(4-methylsulfonyl)phenyl]-2-(trifluoromethyl)-2H-1-benzopyran-3-carboxylic acid]"
15,245.9 to 248.6,"O=C(O)C1=Cc2ccc3ccccc3c2OC1C(F)(F)F (stereo not shown) [Example 62, 2-Trifluoromethyl-2H-naphtho[1,2-b]pyran-3-carboxylic acid]"
16,240 to 241,"O=C(O)C1=Cc2cc(F)cc(Cl)c2OC1C(F)(F)F (stereo not shown) [Example 133, 8-Chloro-6-fluoro-2-(trifluoromethyl)-2H-1-benzopyran-3-carboxylic acid]"
17,148.3 to 151,"C[S+]([O-])c1ccc2c(c1)C=C(C(=O)O)C(C(F)(F)F)O2 (stereo not shown) [Example 86, 6-(Methylsulfinyl)-2-(trifluoromethyl)-2H-1-benzopyran-3-carboxylic acid]"
18,207 to 211,"O=C(O)C1=Cc2cc(F)cc(F)c2OC1C(F)(F)F (stereo not shown) [Example 41, 6,8-Difluoro-2-trifluoromethyl-2H-1-benzopyran-3-carboxylic acid]"
19,152.2 to 153.3,"O=C(O)C1=Cc2ccccc2OC1C(F)(F)F (stereo not shown) [Example 10, 2-Trifluoromethyl-2H-1-benzopyran-3-carboxylic acid]"
20,180.9 to 182.4,"O=C(O)C1=Cc2cc(Cl)c(C(F)(F)F)cc2OC1C(F)(F)F (stereo not shown) [Example 94, 6-Chloro-2,7-bis(trifluoromethyl)-2H-1-benzopyran-3-carboxylic acid]"
21,211.4 to 212.5,"CSc1ccc(-c2cc(Cl)cc3c2OC(C(F)(F)F)C(C(=O)O)=C3)cc1 (stereo not shown) [Example 127, 6-Chloro-8-[(4-methylthio)phenyl]-2-(trifluoramethyl)-2H-1-benzopyran-3-carboxylic acid]"
22,171.5 to 173.3,"O=C(O)C1=Cc2cc(Cl)cc(-c3ccco3)c2OC1C(F)(F)F (stereo not shown) [Example 117, 6-Chloro-8-(2-furanyl)-2-(trifluoromethyl)-2H-1-benzopyran-3-carboxylic acid]"
